One data set relates to yeast fever of the rat. Nature of the data set: Antipyretic action on yeast fever of the rat. The data set is classed as in vivo. The conditions noted are these: 12% yeast 20 ml/kg SC, rectal. As for the experimental part:
Investigation of the Antipyretic Action on Yeast Fever of the Rat Method: Experimental animals were male rats (SIV 50), fasted for 20 hours, with a body weight of 115-165 g. For the production of an elevated body temperature, the animals received, 18 hours before administration of the test substances, 20 ml/kg body of a 12% dry yeast suspension subcutaneously in two to three depots. A control group received the corresponding volume of physiological NaCl solution injected subcutaneously. Ten animals were used per dosage. After three preliminary measurementds of the body temperature on the experimental day in 30-minute intervals, the test substance was administered intragastrally to the animals treated with yeast. The volume of administration amounted to 20 ml/kg body weight. A second control group treated with yeast, as well as the control group treated the previous day with physiological NaCl solution, received the corresponding vehicle instead of test substance. The body temperature of the experimental animals was measured rectally by means of thermocouple sensor 30, 60 minutes and then, in each case, hourly up to a total of five hours after substance administration.

Another data set deals with male mice (NMRI). The experiment in a line: Acute toxicity in mice, seven day values. The conditions noted are these: intragastrally, 10080 min. The data set is classed as in vivo. As for the experimental part: (§1) Investigation of the Acute Toxicity Method:
(§2) The determination of the acute toxicity was carried out on male mice (NMRI) with a body weight of 18 to 23 g. All experimental animals were fasted for 20 hours before commencement of the investigation. Water was available ad libitum. Four animals belonged to each dosage group. The dosage sequence was logarithmic. The test substances were administered either in the form of aqueous solutions or as suspensions in 0.8% Methocel. The administered volumes amounted, in the case of subcutaneous administration, to 10 ml/kg body weight, in the case of intragastral administration to 20 ml/kg body weight.

Data set [1] concerns carrageenin edema of the rat (paw edema). The experiment in a line: Antiphlogistic action on carrageenin edema of rats. The conditions noted are these: 3 h after carrageenin. The data set is classed as in vivo. As for the experimental part:
Investigation of the Antiphlogistic Action on Carrageenin Edema of Rats Method: Experimental animals were male rats (SIV 50), fasted for 20 hours, with a body weight of 110-160 g. Water was available ad libitum. After determination of the initial value of the paw volume of the right hind extremity, the test substances were administered intragastrally as suspension in 0.8% Methocel. Ten animals were used per dosage. The volume of administration amounted to 20 ml/kg body weight. The paw volume was measured plethysmometrically. Sixty minutes after intragastral administration of the test substances, 0.1 ml of a 1% carrageenin solution was injected subplanatary into the right hind paw. One and three hours after injection of the carrageenin, the paw volume of the oedematous paw was measured. The increase of the paw volume of the substance-treated animals after three hours was compared with that in the case of the control animals and the inhibition of the paw edema by the test substance was calculated as a percentage thereof.
For orientation: Carrageenan injected into the paw causes an acute inflammation.

Data set [2] deals with thrombocyte aggregation (platelet-rich plasma). Nature of the data set: Collagen-induced thrombocyte aggregation in vitro (rats). The data set is classed as cell-based, rat. The conditions noted are these: for IC50: rat PRP, collagen-induced, 3 min incubation, end concentration lowering amplitude by 50%, read-out: C50-value (arith. M. + S.D.). As for the experimental part: Collagen-Induced Thrombocyte Aggregation In Vitro (Rats) Method: The test was carried out according to the method of BORN (Nature, 194, 927-929, 1962). As blood donors, there served male Sprague-Dawley SIV 50 rats with a body weight of 200 g. The blood sampling took place, under ether narcosis, from the retroorbital venous complex. Nine parts of blood were mixed with one part of 3.8% w/v tri-Na-citrate solution. After low speed centrifuging of the mixture at room temperature, the platelet-rich plasma (PRP, corresponding to erythrocyte-free supernatant) was removed and adjusted to a standard concentration of […]. As measurement instrument, there served an universal aggregometer (Braun, Melsungen), coupled with an Eppendorf photome[…] (Netheler and Hinz, Hamburg). In the investigation, 700 μl amounts of PRP were equilibrated in the aggregometer for five minutes at 37° C. and then mixed with 58 μl of the test substance solution or of a 0.9% NaCl solution (corresponding to the blank). After an incubation time of three minutes, the addition of 35 μl collagen suspension (collagen reagent HORM®, Hormon Chemie, Munchen) initiated the aggregation. A compensation recorder registered, in the following 15 minutes, the change of the transmission. The largest change of the transmission occurring in the period of time was called the amplitude (Amp) of the aggregation curve. Aggregation-inhibiting substances bring about a reduction of this amplitude; the inhibitory action (E) of a substance is calculated according to the following formula: E=[(Amp)blank -[…] ]×100(%) Dosage-action curves are produced on the basis of which their C50 values could be calculated. The C50 value gives the end concentration of a substance in the test system which leads to a lowering of the amplitude by 50%.

Data set [3] in a line: Acute toxicity in mice, seven day values. The data set is classed as in vivo. To be noted: mouse, in vivo, po, male NMRI mice, intragastrally. As for the experimental part:
as §1, §2

Data set [4] has as its system stomach ulcer of the rat induced by indomethacin. The experiment in a line: Ulcer-protective action on stomach ulcer of the rat induced by indomethacin. To be noted: for Ulcer Inhibition in %: indomethacin 40 mg/kg. The data set is classed as in vivo. As for the experimental part:
Investigation of the Ulcer-Protective Action on Stomach Ulcer of the Rat Induced by Indomethacin. Method: Experimental animals were male rats (SIV 50), fasted for 20 hours, with a body weight of 150-200 g. Water was available ad libitum. 40 mg/kg indomethacin and the substance to be tested, as suspension in 0.8% Methocel, were simultaneously administered to the animals intragastrally. The control animals only received the corresponding dosage of indomethacin. Ten animals were used per experimental group. The administration volume amount to 10 ml/kg body weight. The animals were sacrificed five hours after administration. After removal of the stomachs and opening of the curvatura major, these were investigated with a stereo magnifying glass for the presence of ulcers. The assessment of the ulcers took place according to a point scheme proposed by M. Chaumontet et al. (Arzneim.-Forsch., 28, 2119, 1978). The ulcer index was calculated herefrom. The ulcer index of the animals treated with indomethacin and test substance was compared with that of the control animals only treated with indomethacin and the ulcer inhibition calculated therefrom in percent.

Structures can show the parent of a compound that is named as a salt. Where two headings read alike, the source gives them in different places. Some results are limits rather than exact numbers.

What is called LD50 is the dose at which mortality reaches 50%. A lower LD50 goes with a more toxic substance. Take “1-(2-dimethylaminopropyl)-2-methylthio-5-oxo-4,4-diphenyl-2-pyrroline-3-carbonitrile [Compound 6]”: the body temperature, 30 in the data set with yeast fever of the rat (30 minutes after 250 mg/kg IG) amounted to 37 °C. Further, the body temperature, 60 with yeast fever of the rat (60 minutes after 250 mg/kg IG) is 36 °C. The molecule further came in with a body temperature, 120 in the data set on yeast fever of the rat (120 minutes after 250 mg/kg IG) of 35.2 °C. Also, in the data set with yeast fever of the rat (180 minutes after 250 mg/kg IG), the body temperature, 180 came out at 34.7 °C. The same molecule came in with a body temperature, 240 in the data set on yeast fever of the rat (240 minutes after 250 mg/kg IG) of 35.1 °C. The molecule also showed a body temperature, 300 with yeast fever of the rat (300 minutes after 250 mg/kg IG) of 35.6 °C. In the data set on male mice (NMRI), this molecule registered an LD50 of 1200 mg/kg. In addition, in data set [1] (125 mg/kg intragastrally), the “Inhibition of Paw Edema in %” value was 36%. The IC50 in data set [2] amounted to 190 ± 40 µM.

Consider `CCSC1=C(C#N)C(c2ccccc2)(c2ccccc2)C(=O)N1CCN1CCCCC1.Cl` [Compound 1, 2-Ethylthio-5-oxo-4,4-diphenyl-1-(2-piperidinoethyl)-2-pyrroline-3-carbonitrile hydrochloride], for which, in data set [3], the LD50 at 168 h was 1600 mg/kg. Moreover, in data set [1] (125 mg/kg intragastrally), the “Inhibition of Paw Edema in %” value is 36%.

In the case of `CCSC1=C(C#N)C(c2ccccc2)(c2ccccc2)C(=O)N1CCCN(C)C` [Compound 3, 2-ethylthio-1-(3-dimethylaminopropyl)-5-oxo-4,4-diphenyl-2-pyrroline-3-carbonitrile hydrochloride], the IC50 in data set [2] (0.05 h) was 150 ± 40 µM.

In the case of `CCSC1=C(C#N)C(c2ccccc2)(c2ccccc2)C(=O)N1CCCN1CCOCC1` [Compound 5, 2-ethylthio-1-(3-morpholinopropyl)-5-oxo-4,4-diphenyl-2-pyrroline-3-carbonitrile], the LD50 at 168 h in data set [3] was over 1600 mg/kg. Besides, in data set [4] (100 mg/kg intragastrally), the “Ulcer Inhibition in %” value was 52%. Further, the ulcer-protective action entry in data set [4] (in words) is reported as “the most effective representative”. In addition, the “Inhibition of Paw Edema in %” value was determined as 22% in data set [1] (37.5 mg/kg intragastrally) and 45% in data set [1] (75 mg/kg intragastrally).

In data set [3], `CC(C)SC1=C(C#N)C(c2ccccc2)(c2ccccc2)C(=O)N1CCCN(C)C` [Compound 8, 2-Isopropylthio-1-(3-dimethylaminopropyl)-5-oxo-4,4-diphenyl-2-pyrroline-3-carbonitrile] had an LD50 at 168 h of 1400 mg/kg. Moreover, the IC50 in data set [2] (0.05 h) came to 270 ± 50 µM.

For `CCCSC1=C(C#N)C(c2ccccc2)(c2ccccc2)C(=O)N1CCN(CC)CC` [Compound 9, 1-(2-Diethylaminoethyl)-5-oxo-4,4-diphenyl-2-propylthio-2-pyrroline-3-carbonitrile], the “Ulcer Inhibition in %” value in data set [4] (250 mg/kg intragastrally) came to 29%.

With `CSC1=C(C#N)C(c2ccccc2)(c2ccccc2)C(=O)N1CCCN1CCCCC1` [Compound 12, 2-methylthio-5-oxo-4,4-diphenyl-1-(3-piperidinopropyl)-2-pyrroline-3-carbonitrile], the LD50 at 168 h in data set [3] is over 1600 mg/kg. In addition, the IC50 in data set [2] (0.05 h) came to 150 ± 20 µM.

In the case of `CCSC1=C(C#N)C(c2ccccc2)(c2ccccc2)C(=O)N1CCCN1CCCCC1.O=C(O)C(=O)O` [Compound 15, 2-ethylthio-5-oxo-4,4-diphenyl-1-(3-piperidinopropyl)-2-pyrroline-3-carbonitrile oxalate], the body temperature, 60 with yeast fever of the rat (60 minutes after 150 mg/kg IG) was 36.6 °C. Moreover, the body temperature, 120 in the data set on yeast fever of the rat (120 minutes after 150 mg/kg IG) came out at 35.8 °C. Further, the body temperature, 180 in the data set with yeast fever of the rat (180 minutes after 150 mg/kg IG) was found to be 35.9 °C. The body temperature, 240 with yeast fever of the rat (240 minutes after 150 mg/kg IG) was determined as 36.4 °C. The molecule also showed a body temperature, 300 in the data set on yeast fever of the rat (300 minutes after 150 mg/kg IG) of 37 °C. In data set [3], this molecule had an LD50 at 168 h of 700 mg/kg. Moreover, the “Ulcer Inhibition in %” value in data set [4] (150 mg/kg intragastrally) came to 29%. In addition, the “Inhibition of Paw Edema in %” value in data set [1] (150 mg/kg intragastrally) is given as 39%.

`CCSC1=C(C#N)C(c2ccccc2)(c2ccccc2)C(=O)N1CCCN(CC)CC` [Compound 16, 1-(3-diethylaminopropyl)-2-ethylthio-5-oxo-4,4-diphenyl-2-pyrroline-3-carbonitrile hydrochloride]: the IC50 in data set [2] (0.05 h) stood at 140 ± 60 µM.

Consider `CCSC1=C(C#N)C(c2ccccc2)(c2ccccc2)C(=O)N1CCCN` [Compound 17a, 1-(3-Aminopropyl)-2-ethylthio-5-oxo-4,4-diphenyl-2-pyrroline-3-carbonitrilehydrochloride], for which, in data set [2] (0.05 h), the IC50 was 60 µM. Further, in data set [2] (in words), the aggregation-inhibiting properties entry was “the most effective representative”.

The molecule `CSC1=C(C#N)C(c2ccc(N(C)C)cc2)(c2cccnc2)C(=O)N1CCCN(C)C` (centres unmarked) [Compound 21, 4-(4-Dimethylaminophenyl)-1-(3-dimethylaminopropyl)-2-methylthio-5-oxo-4-(3-pyridyl)-2-pyrroline-3-carbonitrile] came in with an LD50 at 168 h in data set [3] of 1200 mg/kg. The IC50 in data set [2] (0.05 h) came out at 160 ± 20 µM.

These data come from patent US4499089A, “2-Alkylthio-1-aminoalkyl-2-pyrroline-3-carbonitriles, compositions and use” (Warner-Lambert Company, priority 1983, dated 1985).
